Reference: US20230192700A1, “PYRAZOLOPYRAZINES ACTING ON CANCERS VIA INHIBITION OF CDK12” (Bayer Aktiengesellschaft, priority 2020, published 2023)

Biological target: T1, CDK2/CyclinE (Homo sapiens, UniProt P24941)
T1 construct: GST; purchased ProQinase GmbH (Freiburg, Germany); host or cells: insect cells (Sf9)
Assay: CDK2/CycE kinase assay (TR-FRET)
Type: biochemical
Settings: 2 mM ATP (high ATP); median; read-out: CDK2/CyclinE, 2 mM ATP (high ATP) IC50 - [mol/l] (median)
Text: 2.4 CDK2/CycE Kinase Assay
CDK2/CycE-inhibitory activity of compounds of the present invention was quantified employing the CDK2/CycE TR-FRET assay as described in the following paragraphs.
Recombinant fusion proteins of GST and human CDK2 and of GST and human CycE, expressed in insect cells (Sf9) and purified by Glutathion-Sepharose affinity chromatography, were purchased from ProQinase GmbH (Freiburg, Germany). As substrate for the kinase reaction biotinylated peptide biotin-Ttds-YISPLKSPYKISEG (C-terminus in amid form) was used which can be purchased e.g. form the company JERINI peptide technologies (Berlin, Germany).
For the assay 50 nanoL of a 100 fold concentrated solution of the test compound in DMSO was pipetted into a black low volume 384 well microtiter plate or a black 1536 well microtiter plate (both Greiner Bio-One, Frickenhausen, Germany), 2 microL of a solution of CDK2/CycE in aqueous assay buffer [50 millimol/L Tris/HCl pH 8.0, 10 millimol/L MgCl2, 1.0 millimol/L dithiothreitol, 0.1 millimol/L sodium ortho-vanadate, 0.01% (v/v) Nonidet-P40 (Sigma)] were added and the mixture was incubated for 15 min at 22° C. to allow pre-binding of the test compounds to the enzyme before the start of the kinase reaction. Then the kinase reaction was started by the addition of 3 microL of a solution of adenosine-tri-phosphate (ATP, 3.33 millimol/L=>final conc. in the 5 microL assay volume is 2 millimol/L) and substrate (1.25 micromol/L=>final conc. in the 5 microL assay volume is 0.75 micromol/L) in assay buffer and the resulting mixture was incubated for a reaction time of 25 min at 22° C. The concentration of CDK2/CycE was adjusted depending of the activity of the enzyme lot and was chosen appropriate to have the assay in the linear range, typical concentrations were in the range of 10 ng/mL. The reaction was stopped by the addition of 3 microL of a solution of TR-FRET detection reagents (0.333 micromol/L streptavidine-XL665 [Cisbio Bioassays, Codolet, France] and 1.67 nanomol/L anti-RB(pSer807/pSer811)-antibody from BD Pharmingen [#558389] and 2 nanomol/L LANCE EU-W1024 labeled anti-mouse IgG antibody [Perkin-Elmer, product no. AD0077, as an alternative a Terbium-cryptate-labeled anti-mouse IgG antibody from Cisbio Bioassays can be used]) in an aqueous EDTA-solution (167 millimol/L EDTA, 0.2% (w/v) bovine serum albumin in 100 millimol/L HEPES pH 7.5).
The resulting mixture was incubated 1 h at 22° C. to allow the formation of complex between the phosphorylated biotinylated peptide and the detection reagents. Subsequently the amount of phosphorylated substrate was evaluated by measurement of the resonance energy transfer from the Eu-chelate to the streptavidine-XL. Therefore, the fluorescence emissions at 620 nm and 665 nm after excitation at 350 nm was measured in a TR-FRET reader, e.g. a Pherastar (BMG Labtechnologies, Offenburg, Germany) or a Viewlux (Perkin-Elmer). The ratio of the emissions at 665 nm and at […] was taken as the measure for the amount of phosphorylated substrate. The data were normalised (enzyme reaction without inhibitor=0% inhibition, all other assay components but no enzyme=100% inhibition).

COCCC(C)n1nc(NCc2nc3ccccc3[nH]2)c2ncc(C3CC3)nc21 (racemic) [Example 57, (±)-N-[(1H-benzimidazol-2-yl)methyl]-6-cyclopropyl-1-(4-methoxybutan-2-yl)-1H-pyrazolo[3,4-b]pyrazin-3-amine]
IC50: > 20 µM

O[C@H]1CC[C@H](n2nc(NCc3nc4ccccc4[nH]3)c3ncc(C4CC4)nc32)CC1 [Example 50, trans-4-(3-{[(1H-benzimidazol-2-yl)methyl]amino}-6-cyclopropyl-1H-pyrazolo[3,4-b]pyrazin-1-yl)cyclohexan-1-ol]
IC50: > 20 µM

COCCCn1nc(NCc2nc3ccccc3[nH]2)c2ncc(C3CC3)nc21 [Example 61, N-[(1H-benzimidazol-2-yl)methyl]-6-cyclopropyl-1-(3-methoxypropyl)-1H-pyrazolo[3,4-b]pyrazin-3-amine]
IC50: > 20 µM

Cc1cccc2[nH]c(CNc3nn(C4CCOCC4)c4nc(C5CC5)cnc34)nc12 [Example 33, 6-cyclopropyl-N-[(4-methyl-1H-benzimidazol-2-yl)methyl]-1-(oxan-4-yl)-1H-pyrazolo[3,4-b]pyrazin-3-amine]
IC50: > 20 µM

CN1CCC(n2nc(NCc3nc4cc(F)ccc4[nH]3)c3ncc(C4CC4)nc32)CC1 [Example 4, 6-cyclopropyl-N-[(5-fluoro-1H-benzimidazol-2-yl)methyl]-1-(1-methylpiperidin-4-yl)-1H-pyrazolo[3,4-b]pyrazin-3-amine]
IC50: > 20 µM

c1ccc2[nH]c(CNc3nn(C4COC4)c4nc(C5CC5)cnc34)nc2c1 [Example 55, N-[(1H-benzimidazol-2-yl)methyl]-6-cyclopropyl-1-(oxetan-3-yl)-1H-pyrazolo[3,4-b]pyrazin-3-amine]
IC50: > 20 µM

c1ccc2[nH]c(CNc3nn(C4C[C@H]5CC[C@@H](C4)O5)c4nc(C5CC5)cnc34)nc2c1 (stereo partly drawn) [Example 45, exo/endo-N-[(1H-benzimidazol-2-yl)methyl]-6-cyclopropyl-1-(8-oxabicyclo[3.2.1]octan-3-yl)-1H-pyrazolo[3,4-b]pyrazin-3-amine]
IC50: > 18.2 µM

Fc1ccc2[nH]c(CNc3nn(C4CCOCC4)c4nc(C5CC5)cnc34)nc2c1 [Example 53, 6-cyclopropyl-N-[(5-fluoro-1H-benzimidazol-2-yl)methyl]-1-(oxan-4-yl)-1H-pyrazolo[3,4-b]pyrazin-3-amine]
IC50: > 20 µM

CN1CCCC(n2nc(NCc3nc4ccccc4[nH]3)c3ncc(C4CC4)nc32)CC1 (racemic) [Example 34, (±)-N-[(1H-benzimidazol-2-yl)methyl]-6-cyclopropyl-1-(1-methylazepan-4-yl)-1H-pyrazolo[3,4-b]pyrazin-3-amine]
IC50: > 20 µM

CC1(C)CC(n2nc(NCc3nc4ccccc4[nH]3)c3ncc(C4CC4)nc32)CC(C)(C)O1 [Example 52, N-[(1H-benzimidazol-2-yl)methyl]-6-cyclopropyl-1-(2,2,6,6-tetramethyloxan-4-yl)-1H-pyrazolo[3,4-b]pyrazin-3-amine]
IC50: > 20 µM

CN1CCC(n2nc(NCc3nc4ccccc4[nH]3)c3ncc(C4CC4)nc32)C1 (single isomer, unassigned) [Example 78, (+) or (−)-N-[(1H-benzimidazol-2-yl)methyl]-6-cyclopropyl-1-(1-methylpyrrolidin-3-yl)-1H-pyrazolo[3,4-b]pyrazin-3-amine]
IC50: > 20 µM

O[C@H]1C[C@H](n2nc(NCc3nc4ccccc4[nH]3)c3ncc(C4CC4)nc32)C1 [Example 43, trans-3-(3-{[(1H-benzimidazol-2-yl)methyl]amino}-6-cyclopropyl-1H-pyrazolo[3,4-b]pyrazin-1-yl)cyclobutan-1-ol]
IC50: > 20 µM

CN1CCC(n2nc(NCc3nc4c(F)c(F)ccc4[nH]3)c3ncc(C4CC4)nc32)CC1 [Example 9, 6-cyclopropyl-N-[(4,5-difluoro-1H-benzimidazol-2-yl)methyl]-1-(1-methylpiperidin-4-yl)-1H-pyrazolo[3,4-b]pyrazin-3-amine]
IC50: > 20 µM

CN1CCC(n2nc(NCc3nc4cc(Cl)ccc4[nH]3)c3ncc(C4CC4)nc32)CC1 [Example 22, N-[(5-chloro-1H-benzimidazol-2-yl)methyl]-6-cyclopropyl-1-(1-methylpiperidin-4-yl)-1H-pyrazolo[3,4-b]pyrazin-3-amine]
IC50: > 20 µM

c1ccc2[nH]c(CNc3nn(C4CCOCC4)c4nc(C5CC5)cnc34)nc2c1 [Example 16, N-[(1H-benzimidazol-2-yl)methyl]-6-cyclopropyl-1-(oxan-4-yl)-1H-pyrazolo[3,4-b]pyrazin-3-amine]
IC50: > 20 µM

CN1CCC(n2nc(NCc3nc4c(Br)cccc4[nH]3)c3ncc(C4CC4)nc32)CC1 [Example 20, N-[(4-bromo-1H-benzimidazol-2-yl)methyl]-6-cyclopropyl-1-(1-methylpiperidin-4-yl)-1H-pyrazolo[3,4-b]pyrazin-3-amine]
IC50: > 20 µM

OC[C@H]1C[C@@H](n2nc(NCc3nc4ccccc4[nH]3)c3ncc(C4CC4)nc32)C1 [Example 47, [cis-3-(3-{[(1H-benzimidazol-2-yl)methyl]amino}-6-cyclopropyl-1H-pyrazolo[3,4-b]pyrazin-1-yl)cyclobutyl]methanol]
IC50: > 20 µM

CC1CC(n2nc(NCc3nc4ccccc4[nH]3)c3ncc(C4CC4)nc32)CCO1 (racemic) [Example 44, (±)-cis/trans-N-[(1H-benzimidazol-2-yl)methyl]-6-cyclopropyl-1-(2-methyloxan-4-yl)-1H-pyrazolo[3,4-b]pyrazin-3-amine]
IC50: > 20 µM

CN1CCC(n2nc(NCc3nc4c(Cl)c(F)ccc4[nH]3)c3ncc(C4CC4)nc32)CC1 [Example 31, N-[(4-chloro-5-fluoro-1H-benzimidazol-2-yl)methyl]-6-cyclopropyl-1-(1-methylpiperidin-4-yl)-1H-pyrazolo[3,4-b]pyrazin-3-amine]
IC50: > 20 µM

Cc1c(F)ccc2[nH]c(CNc3nn(C4CCN(C)CC4)c4nc(C5CC5)cnc34)nc12 [Example 26, 6-cyclopropyl-N-[(5-fluoro-4-methyl-1H-benzimidazol-2-yl)methyl]-1-(1-methylpiperidin-4-yl)-1H-pyrazolo[3,4-b]pyrazin-3-amine]
IC50: > 20 µM

CN1CCC(n2nc(NCc3nc4ccccc4[nH]3)c3ncc(C4CC4)nc32)C1 (racemic) [Example 35, (±)-N-[(1H-benzimidazol-2-yl)methyl]-6-cyclopropyl-1-(1-methylpyrrolidin-3-yl)-1H-pyrazolo[3,4-b]pyrazin-3-amine]
IC50: > 20 µM

COCCn1nc(NCc2nc3ccccc3[nH]2)c2ncc(C3CC3)nc21 [Example 65, N-[(1H-benzimidazol-2-yl)methyl]-6-cyclopropyl-1-(2-methoxyethyl)-1H-pyrazolo[3,4-b]pyrazin-3-amine]
IC50: > 20 µM

c1ccc2[nH]c(CNc3nn(C4CC5(COC5)C4)c4nc(C5CC5)cnc34)nc2c1 [Example 54, N-[(1H-benzimidazol-2-yl)methyl]-6-cyclopropyl-1-(2-oxaspiro[3.3]heptan-6-yl)-1H-pyrazolo[3,4-b]pyrazin-3-amine]
IC50: > 20 µM

OC[C@H]1C[C@H](n2nc(NCc3nc4ccccc4[nH]3)c3ncc(C4CC4)nc32)C1 [Example 46, [trans-3-(3-{[(1H-benzimidazol-2-yl)methyl]amino}-6-cyclopropyl-1H-pyrazolo[3,4-b]pyrazin-1-yl)cyclobutyl]methanol]
IC50: > 20 µM

O[C@H]1CC[C@H](n2nc(NCc3nc4cc(F)ccc4[nH]3)c3ncc(C4CC4)nc32)CC1 [Example 56, trans-4-(6-cyclopropyl-3-{[(5-fluoro-1H-benzimidazol-2-yl)methyl]amino}-1H-pyrazolo[3,4-b]pyrazin-1-yl)cyclohexan-1-ol]
IC50: > 20 µM

CN1CCC(n2nc(NCc3nc4c(C(F)(F)F)cccc4[nH]3)c3ncc(C4CC4)nc32)CC1 [Example 7, 6-cyclopropyl-1-(1-methylpiperidin-4-yl)-N-{[4-(trifluoromethyl)-1H-benzimidazol-2-yl]methyl}-1H-pyrazolo[3,4-b]pyrazin-3-amine]
IC50: > 20 µM
